Tests used:
[1] = biological target: Fibroblast growth factor receptor 2 (Homo sapiens) (UniProt P21802); test: Inhibition of human FGFR2 at 10 uM using myelin basic protein as substrate incubated for 40 mins in presence of [gamma33P]ATP by scintillation counting method relative to control
HCT-116 [2] = test: Antiproliferative activity against human HCT-116 cells assessed as cell growth inhibition at 10 uM measured after 72 hrs by MTT assay relative to control; format: functional; settings: read-out: GI
MCF7 [3] = test: Antiproliferative activity against human MCF7 cells assessed as cell growth inhibition at 10 uM measured after 72 hrs by MTT assay relative to control; format: functional; settings: read-out: GI
[4] = biological target: High affinity nerve growth factor receptor (Homo sapiens, UniProt P04629); test: Inhibition of human Trk-A using myelin basic protein as substrate incubated for 40 mins in presence of [gamma33P]ATP by scintillation counting method
MCF7 [5] = test: Antiproliferative activity against human MCF7 cells assessed as cell growth inhibition measured after 72 hrs by MTT assay; format: functional
SK-BR-3 [6] = test: Antiproliferative activity against human SK-BR-3 cells assessed as cell growth inhibition measured after 72 hrs by MTT assay; format: functional
HCT-116 [7] = test: Antiproliferative activity against human HCT-116 cells assessed as cell growth inhibition measured after 72 hrs by MTT assay; format: functional
SK-BR-3 [8] = test: Antiproliferative activity against human SK-BR-3 cells assessed as cell growth inhibition at 10 uM measured after 72 hrs by MTT assay relative to control; format: functional; settings: read-out: GI
[9] = biological target: Fibroblast growth factor receptor 1 (Homo sapiens) (UniProt P11362); test: Inhibition of human FGFR1 at 10 uM using myelin basic protein as substrate incubated for 40 mins in presence of [gamma33P]ATP by scintillation counting method relative to control
Chain of Fibroblast growth factor receptor 1 (Homo sapiens) (P11362 22-822 limits assumed): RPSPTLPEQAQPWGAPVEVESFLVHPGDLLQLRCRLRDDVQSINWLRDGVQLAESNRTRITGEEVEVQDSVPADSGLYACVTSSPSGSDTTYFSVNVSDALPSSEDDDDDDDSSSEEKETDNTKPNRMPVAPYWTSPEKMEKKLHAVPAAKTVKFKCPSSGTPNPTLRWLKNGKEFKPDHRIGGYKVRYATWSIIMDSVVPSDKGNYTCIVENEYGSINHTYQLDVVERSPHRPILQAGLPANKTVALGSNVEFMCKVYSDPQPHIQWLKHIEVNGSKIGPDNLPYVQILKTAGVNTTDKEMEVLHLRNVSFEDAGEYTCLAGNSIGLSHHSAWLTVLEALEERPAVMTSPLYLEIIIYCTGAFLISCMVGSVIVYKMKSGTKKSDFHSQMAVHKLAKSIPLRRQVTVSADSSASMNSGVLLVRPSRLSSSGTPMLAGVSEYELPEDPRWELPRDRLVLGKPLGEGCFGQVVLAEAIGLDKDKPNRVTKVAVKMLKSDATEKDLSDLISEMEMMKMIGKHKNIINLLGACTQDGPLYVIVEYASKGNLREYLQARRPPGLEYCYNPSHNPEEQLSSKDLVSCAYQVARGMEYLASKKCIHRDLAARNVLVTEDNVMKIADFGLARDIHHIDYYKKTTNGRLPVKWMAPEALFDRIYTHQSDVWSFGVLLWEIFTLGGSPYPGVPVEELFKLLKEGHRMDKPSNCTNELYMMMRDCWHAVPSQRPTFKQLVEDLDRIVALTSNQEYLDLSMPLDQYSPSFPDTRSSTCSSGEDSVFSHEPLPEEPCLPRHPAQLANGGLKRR

Chain of High affinity nerve growth factor receptor (P04629 whole entry): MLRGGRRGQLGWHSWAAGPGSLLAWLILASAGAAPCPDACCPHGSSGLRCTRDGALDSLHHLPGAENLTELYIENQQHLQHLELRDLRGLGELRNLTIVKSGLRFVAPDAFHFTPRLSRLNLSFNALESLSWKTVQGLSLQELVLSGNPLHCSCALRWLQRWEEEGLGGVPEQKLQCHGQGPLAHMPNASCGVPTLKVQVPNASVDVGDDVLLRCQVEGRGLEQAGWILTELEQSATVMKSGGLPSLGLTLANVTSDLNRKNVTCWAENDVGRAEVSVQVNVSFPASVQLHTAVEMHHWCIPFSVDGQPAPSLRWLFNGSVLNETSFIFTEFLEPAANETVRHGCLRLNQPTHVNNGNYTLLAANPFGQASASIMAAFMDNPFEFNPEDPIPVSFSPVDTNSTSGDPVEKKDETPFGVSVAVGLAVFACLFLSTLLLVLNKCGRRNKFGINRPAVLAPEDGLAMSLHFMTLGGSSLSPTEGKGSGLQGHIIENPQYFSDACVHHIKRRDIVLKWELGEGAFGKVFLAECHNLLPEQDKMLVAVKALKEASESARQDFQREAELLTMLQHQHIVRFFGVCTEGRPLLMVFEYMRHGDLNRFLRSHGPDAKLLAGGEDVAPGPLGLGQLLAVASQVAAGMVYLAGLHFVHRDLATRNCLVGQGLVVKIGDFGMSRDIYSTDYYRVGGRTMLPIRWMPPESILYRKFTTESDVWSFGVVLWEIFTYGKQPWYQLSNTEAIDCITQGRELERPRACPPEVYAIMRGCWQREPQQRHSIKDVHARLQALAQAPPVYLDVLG
Chain of Fibroblast growth factor receptor 2 (Homo sapiens) (P21802 22-821 limits assumed): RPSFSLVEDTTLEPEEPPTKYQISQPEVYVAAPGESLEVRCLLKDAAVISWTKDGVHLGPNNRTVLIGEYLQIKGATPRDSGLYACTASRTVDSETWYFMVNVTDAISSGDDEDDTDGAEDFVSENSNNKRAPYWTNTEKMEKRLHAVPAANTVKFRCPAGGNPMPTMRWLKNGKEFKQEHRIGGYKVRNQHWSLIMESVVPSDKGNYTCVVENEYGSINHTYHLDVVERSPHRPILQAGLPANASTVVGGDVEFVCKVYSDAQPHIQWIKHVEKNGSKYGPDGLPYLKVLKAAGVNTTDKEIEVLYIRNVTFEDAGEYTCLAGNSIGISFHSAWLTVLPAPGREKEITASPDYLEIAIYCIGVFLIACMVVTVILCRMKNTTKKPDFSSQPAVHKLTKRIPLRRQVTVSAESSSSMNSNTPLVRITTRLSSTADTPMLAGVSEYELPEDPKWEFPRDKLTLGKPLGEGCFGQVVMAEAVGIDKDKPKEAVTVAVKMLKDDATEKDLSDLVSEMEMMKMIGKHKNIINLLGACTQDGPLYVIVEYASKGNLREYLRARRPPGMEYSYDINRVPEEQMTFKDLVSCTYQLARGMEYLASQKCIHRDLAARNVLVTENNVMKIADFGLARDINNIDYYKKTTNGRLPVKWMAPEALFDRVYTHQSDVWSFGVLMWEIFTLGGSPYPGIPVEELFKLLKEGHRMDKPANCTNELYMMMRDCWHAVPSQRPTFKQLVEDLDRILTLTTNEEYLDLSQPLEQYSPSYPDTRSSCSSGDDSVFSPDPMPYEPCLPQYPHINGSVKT

| inhibition [1] | IC50 [4] | GI50 (MCF7 [5]) | GI50 (SK-BR-3 [6]) | GI50 (HCT-116 [7]) | inhibition [9] | Structure (SMILES) | inhibition of growth at 10 µM (HCT-116 [2]) | inhibition of growth at 10 µM (MCF7 [3]) | inhibition of growth at 10 µM (SK-BR-3 [8]) |
| --- | --- | --- | --- | --- | --- | --- | --- | --- | --- |
| 24% | 2.29 µM | 2.78 µM | 3.64 µM | 4.09 µM | 47.1% | CCCCCCCC(=O)Nc1nc2[nH]c(CN3CCN(Cc4ccccc4)CC3)c(CN3CCN(Cc4ccccc4)CC3)c2c(=O)[nH]1 | 97% | 96.6% | 93.4% |
| – | – | – | – | – | – | CCCCCCCC(=O)Nc1nc2[nH]c(CN3CCN(c4ccc([N+](=O)[O-])cc4)CC3)c(CN3CCN(c4ccc([N+](=O)[O-])cc4)CC3)c2c(=O)[nH]1 | 27% | 12.6% | 64.6% |
| – | – | – | – | – | – | CN1CCN(Cc2c[nH]c3nc(N)[nH]c(=O)c23)CC1 | 16.5% | 20.2% | 29% |
| – | – | – | – | – | – | Nc1nc2[nH]c(CN3CCN(Cc4ccc(F)cc4)CC3)c(CN3CCN(Cc4ccc(F)cc4)CC3)c2c(=O)[nH]1 | 23% | 18.4% | 23.2% |
| – | – | – | – | – | – | CCCCCCCC(=O)Nc1nc2[nH]cc(CN3CCN(CCO)CC3)c2c(=O)[nH]1 | 67.3% | 42% | 62.2% |
| – | – | – | – | – | – | Nc1nc2[nH]cc(CN3CCN(c4ccccc4)CC3)c2c(=O)[nH]1 | 49% | 49.7% | 30.7% |
| – | – | – | – | – | – | Nc1nc2[nH]c(CN3CCN(c4ccc([N+](=O)[O-])cc4)CC3)c(CN3CCN(c4ccc([N+](=O)[O-])cc4)CC3)c2c(=O)[nH]1 | 1.94% | 1.26% | 6.79% |
| 23% | 3.15 µM | 4.2 µM | 3.73 µM | 1.89 µM | 59.8% | CCCCCCCC(=O)Nc1nc2[nH]c(CN3CCN(Cc4ccccc4F)CC3)c(CN3CCN(Cc4ccccc4F)CC3)c2c(=O)[nH]1 | 97.3% | 96.1% | 93.4% |
| – | – | – | 8.04 µM | – | – | CCCCCCCC(=O)Nc1nc2[nH]cc(CN3CCN(c4ccc([N+](=O)[O-])cc4)CC3)c2c(=O)[nH]1 | 68.5% | 40.4% | 61.6% |
| – | – | – | – | – | – | Nc1nc2[nH]cc(CN3CCN(Cc4cccc(F)c4)CC3)c2c(=O)[nH]1 | 31.1% | 20.6% | 16.8% |
| – | – | – | – | – | – | CCCCCCCC(=O)Nc1nc2[nH]cc(CN3CCN(C)CC3)c2c(=O)[nH]1 | 51% | 59.6% | 50.4% |
| – | – | – | – | – | – | Nc1nc2[nH]cc(CN3CCN(c4ccc([N+](=O)[O-])cc4)CC3)c2c(=O)[nH]1 | 28.5% | 26.8% | 27.5% |
| – | – | – | – | – | – | Nc1nc2[nH]cc(CN3CCN(CCO)CC3)c2c(=O)[nH]1 | 17.8% | 18.8% | 32.8% |
| – | – | – | – | – | – | CCCCCCCC(=O)Nc1nc2[nH]cc(CN3CCN(C(=O)c4ccco4)CC3)c2c(=O)[nH]1 | 60.2% | 68.5% | 71.2% |
| – | – | – | – | – | – | Nc1nc2[nH]c(CN3CCN(C(c4ccccc4)c4ccccc4)CC3)c(CN3CCN(C(c4ccccc4)c4ccccc4)CC3)c2c(=O)[nH]1 | 10.7% | 13.8% | 11.1% |
| – | – | – | 6.43 µM | 18.4 µM | – | CCCCCCCC(=O)Nc1nc2[nH]c(CN3CCN(C(c4ccccc4)c4ccccc4)CC3)c(CN3CCN(C(c4ccccc4)c4ccccc4)CC3)c2c(=O)[nH]1 | 41.5% | 15.2% | 67.3% |
| – | – | – | 0.63 µM | 3.99 µM | – | CCCCCCCC(=O)Nc1nc2[nH]cc(CN3CCN(c4ccccc4)CC3)c2c(=O)[nH]1 | 73.9% | 50.3% | 67.6% |
| – | – | – | – | – | – | CCCCCCCC(=O)Nc1nc2[nH]cc(CN3CCN(C(C)=O)CC3)c2c(=O)[nH]1 | 43.8% | 35.8% | 40.2% |
| – | – | – | 11.2 µM | – | – | COc1ccc(N2CCN(Cc3c[nH]c4nc(N)[nH]c(=O)c34)CC2)cc1 | 69.2% | 51.7% | 57.5% |
| – | – | – | – | – | – | CC(=O)N1CCN(Cc2c[nH]c3nc(N)[nH]c(=O)c23)CC1 | 13.8% | 16.2% | 24.2% |
| – | – | – | – | – | – | CCCCCCCC(=O)Nc1nc2[nH]c(CN3CCN(c4cc(Cl)cc(Cl)c4)CC3)c(CN3CCN(c4cc(Cl)cc(Cl)c4)CC3)c2c(=O)[nH]1 | 6.88% | 10.7% | 42.5% |

| inhibition [1] | IC50 [4] | GI50 (MCF7 [5]) | GI50 (SK-BR-3 [6]) | GI50 (HCT-116 [7]) | inhibition [9] | Structure (SMILES) | inhibition of growth at 10 µM (HCT-116 [2]) | inhibition of growth at 10 µM (MCF7 [3]) | inhibition of growth at 10 µM (SK-BR-3 [8]) |
| --- | --- | --- | --- | --- | --- | --- | --- | --- | --- |
| – | – | 7.84 µM | 5.58 µM | 5.34 µM | – | CCCCCCCC(=O)Nc1nc2[nH]cc(CN3CCN(Cc4cccc(F)c4)CC3)c2c(=O)[nH]1 | 92.8% | 85.7% | 91.2% |
| – | – | – | – | – | – | Nc1nc(O)c2c(CN3CCCCC3)c[nH]c2n1 | 24.1% | 23.8% | 17.5% |
| – | – | – | 0.95 µM | 7.17 µM | – | CCCCCCCC(=O)Nc1nc2[nH]cc(CN3CCN(c4cccc(Cl)c4)CC3)c2c(=O)[nH]1 | 72.7% | 43.4% | 69.7% |
| – | – | 0.392 µM | 0.347 µM | – | – | COc1c(C)cnc(Cn2cnc3c(Cl)nc(N)nc32)c1C [BIIB021] | 86.2% | 84.8% | 71.9% |
| – | – | 33.9 µM | – | 20.3 µM | – | Nc1nc2[nH]cc(CN3CCN(C(c4ccccc4)c4ccccc4)CC3)c2c(=O)[nH]1 | 80.5% | 79.5% | 4.22% |
| – | – | – | – | – | – | CCCCCCCC(=O)Nc1nc2[nH]cc(CN3CCN(CCN4CCOCC4)CC3)c2c(=O)[nH]1 | 93% | 88.6% | 90.4% |
| – | – | – | – | – | – | Nc1nc2[nH]c(CN3CCN(Cc4ccccc4F)CC3)c(CN3CCN(Cc4ccccc4F)CC3)c2c(=O)[nH]1 | 12.8% | 8.91% | 59% |
| – | – | – | 0.97 µM | 1.46 µM | – | CCCCCCCC(=O)Nc1nc2[nH]cc(CN3CCN(c4ccccc4C#N)CC3)c2c(=O)[nH]1 | 79.5% | 59.2% | 84.6% |
| – | – | – | 0.41 µM | 1.01 µM | – | CCCCCCCC(=O)Nc1nc2[nH]cc(CN3CCN(C(c4ccccc4)c4ccccc4)CC3)c2c(=O)[nH]1 | 75.5% | 58.4% | 67.4% |
| – | – | – | 23.7 µM | 8.37 µM | – | N#Cc1ccccc1N1CCN(Cc2c[nH]c3nc(N)[nH]c(=O)c23)CC1 | 72% | 51.1% | 73.8% |
| – | – | – | – | – | – | CCCCCCCC(=O)Nc1nc2[nH]cc(Cn3ccnc3)c2c(=O)[nH]1 | 80.5% | 68.2% | 86.1% |
| – | – | – | – | – | – | Nc1nc2[nH]c(CN3CCN(Cc4ccccc4)CC3)c(CN3CCN(Cc4ccccc4)CC3)c2c(=O)[nH]1 | 21.4% | 21.2% | 15.7% |
| – | – | – | – | – | – | Nc1nc2[nH]cc(CN3CCN(CCN4CCOCC4)CC3)c2c(=O)[nH]1 | 15.4% | 19.5% | 27.1% |
| – | – | – | 1.23 µM | 8.94 µM | – | CCCCCCCC(=O)Nc1nc2[nH]cc(CN3CCN(c4ccc(OC)cc4)CC3)c2c(=O)[nH]1 | 71.4% | 49.2% | 71.4% |
| – | – | – | – | – | – | CCCCCCCC(=O)Nc1nc2[nH]cc(CN3CCC(NC(=O)OC(C)(C)C)CC3)c2c(=O)[nH]1 | 50.3% | 36.5% | 59.3% |
| – | – | – | – | – | – | Nc1nc2[nH]c(CN3CCN(Cc4cccc(F)c4)CC3)c(CN3CCN(Cc4cccc(F)c4)CC3)c2c(=O)[nH]1 | 13.6% | 16.1% | 10.5% |
| – | – | – | – | – | – | Nc1nc2[nH]cc(Cn3ccnc3)c2c(=O)[nH]1 | 50.6% | 38.8% | 38.8% |
| 14.7% | 2.76 µM | 1.75 µM | 3.6 µM | 4.13 µM | 50.5% | CCCCCCCC(=O)Nc1nc2[nH]c(CN3CCN(Cc4ccc(F)cc4)CC3)c(CN3CCN(Cc4ccc(F)cc4)CC3)c2c(=O)[nH]1 | 97.1% | 97.2% | 93.5% |
| – | – | – | 8.28 µM | 7.66 µM | – | Nc1nc2[nH]cc(CN3CCN(c4cccc(Cl)c4)CC3)c2c(=O)[nH]1 | 79.3% | 54.2% | 67.5% |
| – | – | 13.4 µM | 15 µM | 14.9 µM | – | CCCCCCCC(=O)Nc1nc2[nH]cc(CN3CCCCC3)c2c(=O)[nH]1 | 51.1% | 70.2% | 77.1% |

— ChEMBL document CHEMBL4673219, “Novel 5,6-disubstituted pyrrolo[2,3-d]pyrimidine derivatives as broad spectrum antiproliferative agents: Synthesis, cell based assays, kinase profile and molecular docking study” (Bioorg Med Chem, 2018)
